Experiments:
JAK1 = JAK1 (Homo sapiens (Human), UniProt P23458); test: JAK kinase assay (HTRF), JAK1; type: biochemical; details: catalytic domain (aa 850-1154), GST-tag, ATP at Km (7 μM)
Procedure: (§1) Human baculovirus-expressed JAK1, 2, 3 and TYK2 were purchased from Carna Biosciences, Inc. All four purified enzymes contain only the catalytic domain. JAK1 (aa 850-1154) and TYK2 (aa 871-1187) are expressed with an N-terminally fused GST-tag, and JAK2 and JAK3 with an N-terminally fused His-tag.
(§2) Inhibition of phosphorylation of a synthetic peptide was measured in an HTRF-based assay using the TK substrate-Biotin from the Cisbio HTRFKinEASE TK kit. First, 2 μl of TK solution (TK substrate-biotin in kinase buffer [1× enzymatic buffer from HTRFKinEASE TK kit, 1 mM DTT]) is added to a plate containing 1 μl prediluted compound (final assay concentration DMSO: 0.75%). Then, 5 μl kinase-ATP mix (prepared in kinase buffer) is added to the wells and the plates are incubated at RT for 20-30 min. For all four kinases a concentration of ATP that corresponded to the Km for ATP was used. The final concentrations of buffers, substrate, kinase and ATP were: JAK1: 50 mM Hepes buffer pH 7.0, 0.01% BSA, 10 mM MgCl2, 1 mM DTT, 7 μM ATP, 50 nM SEB, 1 μM TK Substrate-Biotin and 5 ng JAK1; JAK2: 50 mM Hepes buffer pH 7.0, 0.01% BSA, 5 mM MgCl2, 1 mM DTT, 4 μM ATP, 1 μM TK Substrate-Biotin and 0.1 ng JAK2; JAK3: 50 mM Hepes buffer pH 7.0, 0.01% BSA, 5 mM MgCl2, 1 mM DTT, 2 μM ATP, 1 μM TK Substrate-Biotin and 0.3 ng JAK3; TYK2: 50 mM Hepes buffer pH 7.0, 0.01% BSA, 5 mM MgCl2, 1 mM DTT, 13 μM ATP, 50 nM SEB, 1 μM TK Substrate-Biotin and 0.8 ng TYK2. Thereafter, the kinase reaction is stopped by adding 4 μl detection mix (final concentrations: 50 mM Hepes buffer pH 7.0, 0.01% BSA, 0.8 M KF, 20 mM EDTA, 42 nM Streptavidin-XL665 and 1:400 STK Ab Cryptate) and the plates are incubated overnight in the dark. The HTRF signal is read using an Envision plate reader.

JAK2 = JAK2 (Homo sapiens (Human), UniProt O60674); test: JAK kinase assay (HTRF), JAK2; type: biochemical; details: catalytic domain, His-tag, ATP at Km (4 μM)
Chain of JAK2 (O60674 849-1124): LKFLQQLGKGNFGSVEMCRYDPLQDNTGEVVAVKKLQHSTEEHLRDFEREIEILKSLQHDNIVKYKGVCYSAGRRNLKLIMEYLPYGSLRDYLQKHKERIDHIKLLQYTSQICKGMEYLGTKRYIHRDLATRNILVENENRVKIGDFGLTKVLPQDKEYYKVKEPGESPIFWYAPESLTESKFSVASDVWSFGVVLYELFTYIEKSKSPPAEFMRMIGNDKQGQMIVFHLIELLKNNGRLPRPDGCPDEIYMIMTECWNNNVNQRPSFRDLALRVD
Procedure: as §1, §2

JAK3 = JAK3 (Homo sapiens (Human), UniProt P52333); test: JAK kinase assay (HTRF), JAK3; type: biochemical; details: catalytic domain, His-tag, ATP at Km (2 μM)
Chain of JAK3 (P52333 822-1111): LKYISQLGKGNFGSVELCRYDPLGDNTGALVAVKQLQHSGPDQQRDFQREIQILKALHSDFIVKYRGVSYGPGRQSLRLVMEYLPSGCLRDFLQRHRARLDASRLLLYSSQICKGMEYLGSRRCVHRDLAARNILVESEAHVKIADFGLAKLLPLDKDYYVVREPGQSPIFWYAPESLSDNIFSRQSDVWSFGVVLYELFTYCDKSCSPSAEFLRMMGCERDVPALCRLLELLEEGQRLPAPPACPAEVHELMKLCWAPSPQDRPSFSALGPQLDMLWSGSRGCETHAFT
Procedure: as §1, §2

TYK2 = TYK2 (Homo sapiens (Human), UniProt P29597); test: JAK kinase assay (HTRF), TYK2; type: biochemical; details: catalytic domain (aa 871-1187), GST-tag, ATP at Km (13 μM)
Chain of TYK2 (P29597 871-1187): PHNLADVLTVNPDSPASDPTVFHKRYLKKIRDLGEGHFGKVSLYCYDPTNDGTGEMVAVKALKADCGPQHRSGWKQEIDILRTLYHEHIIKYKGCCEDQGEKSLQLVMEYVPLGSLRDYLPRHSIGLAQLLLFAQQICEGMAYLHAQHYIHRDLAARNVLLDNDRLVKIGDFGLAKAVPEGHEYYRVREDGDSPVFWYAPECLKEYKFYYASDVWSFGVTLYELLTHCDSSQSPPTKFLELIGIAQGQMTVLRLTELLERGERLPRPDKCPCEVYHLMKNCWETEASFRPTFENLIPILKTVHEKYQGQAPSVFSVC
Procedure: as §1, §2

[1] = in vitro metabolic stability in human liver microsomes; type: in vitro ADME; details: compound 0.5 μM, human liver microsomes 0.5 mg/mL, NADPH, 40 min, 37° C.; for CLint scaled at 0.5 μM: human, liver microsomes, read-out: Human liver microsome Clapp (apparent intrinsic clearance)
Procedure: To assess the in vitro metabolic stability, the compounds (0.5 μM) were incubated in duplicates with human liver microsomes (0.5 mg/mL) in phosphate buffer and NADPH, in 96-well plates for 40 min (37° C.), using a liquid handling robot (Hamilton Microlab Star). Sample aliquots were taken at 0, 5, 10, 20 and 40 min, and dispensed into cold acetonitrile, in order to stop the reactions. The plates were centrifuged for 30 minutes before the samples were analyzed using liquid chromatography coupled to a time-of-flight mass spectrometer (AB Sciex API5600). The compound depletion over time was used to estimate the elimination rate constant, from which the apparent intrinsic clearance, Clapp, was calculated and the values are listed in table 2.

Chain of JAK1 (P23458 850-1154): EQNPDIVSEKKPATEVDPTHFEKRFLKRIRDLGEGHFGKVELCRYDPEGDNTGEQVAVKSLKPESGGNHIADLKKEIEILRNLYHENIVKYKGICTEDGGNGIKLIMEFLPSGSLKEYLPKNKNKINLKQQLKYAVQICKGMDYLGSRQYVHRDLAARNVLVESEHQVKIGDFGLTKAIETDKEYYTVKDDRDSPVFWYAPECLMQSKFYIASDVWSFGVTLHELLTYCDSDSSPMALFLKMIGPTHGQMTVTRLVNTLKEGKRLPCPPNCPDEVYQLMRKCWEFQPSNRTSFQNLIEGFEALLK

Compound | EC50 (JAK1) [nM] | EC50 (JAK2) [nM] | EC50 (JAK3) [nM] | EC50 (TYK2) [nM] | CLint scaled at 0.5 μM [1] [mL/min/kg] | Human liver microsome Clapp (apparent intrinsic clearance) [1] [mL/min/kg]
C[C@]12CN(C#N)C[C@H]1CCN(c1ncnc3[nH]ccc13)C2 [Example 29, (3aS,7aS)-3a-methyl-5-(7H-pyrrolo[2,3-d]pyrimidin-4-yl)-1,3,4,6,7,7a-hexahydropyrrolo[3,4-c]pyridine-2-carbonitrile] | 10 | 35 | 118 | 123 | 10 | –
CC12CN(c3ccc(C#N)cn3)C[C@H]1CCN(c1ncnc3[nH]ccc13)C2 (stereo in doubt) [Example 33, 6-[(3aS,7aS)-3a-methyl-5-(7H-pyrrolo[2,3-d]pyrimidin-4-yl)-1,3,4,6,7,7a-hexahydropyrrolo[3,4-c]pyridin-2-yl]pyridine-3-carbonitrile] | 1 | 5 | 8 | 59 | 166 | –
CC[C@]12CN(C#N)CC[C@H]1CCN(c1ncnc3[nH]ccc13)C2 (relative stereo) [Example 23, (4aR*,8aS*)-8a-ethyl-7-(7H-pyrrolo[2,3-d]pyrimidin-4-yl)-3,4,4a,5,6,8-hexahydro-1H-2,7-naphthyridine-2-carbonitrile] | 2 | 4 | 14 | 11 | – | 200
C[C@@]12CN(C#N)CC[C@@H]1CCN(c1ncnc3[nH]ccc13)C2 [Example 3, (4aS,8aR)-8a-methyl-7-(7H-pyrrolo[2,3-d]pyrimidin-4-yl)-3,4,4a,5,6,8-hexahydro-1H-2,7-naphthyridine-2-carbonitrile] | 237 | 428 | 924 | 1480 | 60 | –
C[C@]12CN(c3ccc(C#N)cn3)C[C@H]1CCN(c1ncnc3[nH]ccc13)C2 (racemic) [Example 47] | 5 | 30 | 26 | 159 | 133 | –
C[C@]12CN(c3ccc(C#N)nn3)C[C@H]1CCN(c1ncnc3[nH]ccc13)C2 (racemic) [Example 42] | 10 | 53 | 78 | 574 | 53 | –
CC[C@]12CN(C#N)CC[C@H]1CCN(c1ncnc3[nH]ccc13)C2 [Example 22, (4aR,8aS)-8a-ethyl-7-(7H-pyrrolo[2,3-d]pyrimidin-4-yl)-3,4,4a,5,6,8-hexahydro-1H-2,7-naphthyridine-2-carbonitrile] | 1 | 2 | 6 | 6 | 185 | –

— patent US10851116B2, “Bicyclic amines as novel JAK kinase inhibitors” (LEO Pharma A/S, priority 2017, dated 2020)
